Key:
H520 cell line = experiment: Cell proliferation (growth curve) with FGFR inhibitors, H520; type: cell-based; settings: H520, endogenous FGFR1, FGFR4 and high N-cadherin; 0.5 μM or 1 μM
Method: (§1) 3,500 cells were seeded per well in 12-well plates. At 24 hours (day 0) the cells of the first point of the curve were fixed, and every 24-48 hours a new point of the curve was fixed and the medium of the rest was changed. The fixed plates were preserved with the cells in PBS at 4° C. until all the points of the curve were fixed. The plates were then stained with crystal violet for 20 minutes, washed and allowed to dry. Once dry, 20% acetic acid was added to each well to dilute the crystal violet, and the absorbance at 595 nm was measured on a VICTOR optical reading device (PerkinElmer). All absorbances were standardised in relation to the absorbance of day 0 of each experimental condition. Finally, this standardised value (growth relative to day 0 on the Y-axis) was plotted against time (days, X-axis).
(§2) To verify whether N-cadherin expression is decisive in the determination of the efficacy of FGFR inhibition in lung cancer treatment, the efficacy of two selective FGFR inhibitors, in terms of growth inhibition, was tested. For this purpose, cell lines with high endogenous expression of FGFR1 and/or FGFR4 and low expression of N-cadherin (A549 and H460), or with high endogenous expression of FGFR1 and/or FGFR4 and high expression of N-cadherin (H520 and H226) were selected. […]

H226 cell line = experiment: Cell proliferation (growth curve) with FGFR inhibitors, H226; type: cell-based; settings: H226, endogenous FGFR1 and high N-cadherin; 0.5 μM or 1 μM
Method: as §1, §2

A549 cell line = experiment: Cell proliferation (growth curve) with FGFR inhibitors, A549; type: cell-based; settings: A549, endogenous FGFR1 and FGFR4, low N-cadherin; 0.5 μM or 1 μM
Method: as §1, §2

H460 cell line = experiment: Cell proliferation (growth curve) with FGFR inhibitors, H460; type: cell-based; settings: H460, endogenous FGFR1, low N-cadherin; 0.5 μM or 1 μM
Method: as §1, §2

[1] = test system: mesenchymal bladder cancer cell lines; settings: cited from earlier work
[2] = test system: TP91 adenocarcinoma PDX (high N-cadherin); experiment: PDX treatment, tumour growth, model TP91; type: in vivo, mice; settings: 7.5 mg/kg/day oral
Method: (§3) Tumours from patients with non-small cell lung cancer, covered with Matrigel (BD #356234) are implanted in the flank of immunocompromised nude mice of 5-6 weeks of age, under anaesthesia by isofluorane inhalation and under analgesia by buprenorphine. To perform the implant, a small cut is made in the flank of the mouse under anaesthesia and analgesia and the tumour fragment is inserted, about 100-150 mm^3 in volume.
(§4) The size of the tumours generated by the xenografts was measured weekly with a measuring gauge. The shortest and longest length of each tumour was measured and the tumour volume was calculated with the formula: 0.5×(longest dimension)×(shortest dimension)^2.
(§5) For this purpose, the model of interest was implanted in 4-6 mice per treatment group as stated above, and the growth of the tumours generated was monitored. […]
(§6) The growth of the tumours is shown in graphs of tumour growth against time, where each measurement of tumour volume is relativised with the initial measurement after commencing the treatment, and the median and mean error are shown for each treatment group. The variation in tumour volume is represented with bar graphs which show the increase (or decrease), expressed as a percentage, of the volume of each tumour with regard to the initial volume in each treatment group

[3] = test system: FGFR-related signalling pathways; experiment: Western blot of FGFR-related signalling pathways in treated PDX TP60; type: in vivo, mice; settings: TP60 tumours, low N-cadherin
Method: (§7) The total proteins of the tumours from xenografts were obtained by adding the lysis buffer to the previously pulverized tissue fragment in a mortar pre-cooled with liquid nitrogen, to avoid thawing the fragment; it was then incubated on ice for 2 hours, stirring every 10 minutes, and the volume was collected in 2 mL tubes that were centrifuged at 15,000×g for 10 minutes at 4° C. to eliminate the remnants of undissolved tissue, and the supernatant was stored at −80° C. The extraction buffer and the quantification method used were the same as in the case of protein extraction from cell lines.
Protein immunodetection was performed according to a standard protocol on PDVF membranes (GE Healthcare). The proteins were separated on SDS polyacrylamide gels using a 1X Tris HCl 0.13 M electrophoresis buffer, 0.95 M glycine, 0.5% SDS, and were transferred to PDVF membranes, using a Trans-Blot Turbo kit (BioRad). The transfer was performed at 400 mA for 3 hours in transfer buffer (0.025 M TrisHCl, 0.2 M glycine, 20% methanol). The membranes were blocked for 1 hour under stirring with the blocking buffer (TBS, 0.1% Tween20 and 1% BSA). […] The detection was performed using a chemiluminescent reaction (Clarity ECL, Biorad) and visualization using luminescence detection equipment (ChemiDoc, BioRad). […]

[4] = test system: TP96 epidermoid carcinoma PDX (high FGFR1, FGFR4 and N-cadherin)
Method: as §3, §4
For this purpose, the model of interest was implanted in 4-6 mice per treatment group as stated above, and the growth of the tumours generated was monitored. […] Once the groups were established, the treatments were commenced, lasting between 3 and 5 weeks, depending on the growth rate of each model and on the drug or drugs employed.
The concentration of AZD4547 employed was 7.5 mg/kg/day, administered from Monday to Friday. The route of administration of the drug was oral. At the end of the treatment, the mice were sacrificed and the tumours processed and stored as stated above.
as §6

[5] = test system: TP114 epidermoid carcinoma PDX (high N-cadherin); experiment: PDX treatment, tumour growth, model TP114; type: in vivo, mice; settings: 7.5 mg/kg/day oral
Method: as §3, §4, §5, §6

[6] = test system: TP13 epidermoid carcinoma PDX (low N-cadherin); experiment: PDX treatment, tumour growth, model TP13; type: in vivo, mice; settings: 7.5 mg/kg/day oral, Monday to Friday
Method: as §3, §4, §5, §6

lung cancer cell lines = experiment: In vitro experiments with the two FGFR inhibitors, growth inhibition overall; type: cell-based; settings: BGJ398 versus AZD4547
Method: To verify whether N-cadherin expression is decisive in the determination of the efficacy of FGFR inhibition in lung cancer treatment, the efficacy of two selective FGFR inhibitors, in terms of growth inhibition, was tested. For this purpose, cell lines with high endogenous expression of FGFR1 and/or FGFR4 and low expression of N-cadherin (A549 and H460), or with high endogenous expression of FGFR1 and/or FGFR4 and high expression of N-cadherin (H520 and H226) were selected. In these lines, an analysis was performed on the effect on cell proliferation of two selective FGFR inhibitors: BGJ398 and AZD4547 (SELLECKCHEM, Refs. S2183 and S2801 respectively) with regard to time.

[7] = test system: TP60 adenocarcinoma PDX (low N-cadherin); experiment: PDX treatment, tumour growth, model TP60; type: in vivo, mice; settings: 7.5 mg/kg/day oral, Monday to Friday
Method: as §3, §4, §5, §6

[8] = test system: FGFR-related signalling pathways (pSTAT3, pAKT, p-p42/p44); experiment: Western blot of FGFR-related signalling pathways in treated PDX TP91; type: in vivo, mice; settings: TP91 tumours, high N-cadherin
Method: as §7
Protein immunodetection was performed according to a standard protocol on PDVF membranes (GE Healthcare). The proteins were separated on SDS polyacrylamide gels using a 1X Tris HCl 0.13 M electrophoresis buffer, 0.95 M glycine, 0.5% SDS, and were transferred to PDVF membranes, using a Trans-Blot Turbo kit (BioRad). The transfer was performed at 400 mA for 3 hours in transfer buffer (0.025 M TrisHCl, 0.2 M glycine, 20% methanol). The membranes were blocked for 1 hour under stirring with the blocking buffer (TBS, 0.1% Tween20 and 1% BSA). Subsequently, the membranes were incubated with the appropriate dilution of primary antibody for 16 hours at 4° C. After this incubation, the membranes were washed with washing buffer (TBS 0.1% Tween-20) and incubated with a 1:5,000 dilution of the appropriate peroxidase-conjugated secondary antibody, for one hour at ambient temperature. The detection was performed using a chemiluminescent reaction (Clarity ECL, Biorad) and visualization using luminescence detection equipment (ChemiDoc, BioRad).
The route of administration of the drug was oral.

Row | Molecule | effect on cell growth (relative growth with regard to time) (H520 cell line) | effect on cell growth (relative growth with regard to time) (H226 cell line) | effect on cell growth (relative growth with regard to time) (A549 cell line) | effect on cell growth (relative growth with regard to time) (H460 cell line) | responsiveness of mesenchymal versus epithelial bladder cancer cell lines [1] | average reduction in volume with regard to the control condition ([2]; TP91, high N-cadherin, Monday to Friday) [%] | complete tumour regression, fraction of the tumours treated ([2]; TP91) | activation of the FGFR-related signalling pathways studied [3] | average reduction in volume with regard to the control condition ([4]; TP96, high FGFR1, FGFR4 and N-cadherin, 7.5 mg/kg/day oral, Monday to Friday) [%] | complete tumour regression, fraction of the tumours treated ([4]; TP96, 7.5 mg/kg/day oral) | response to the treatment ([4]; TP96, partial response = average reduction in tumour volume of 50% or greater vs volume at commencement of treatment) | average reduction in volume with regard to the control condition ([5]; TP114, high N-cadherin, Monday to Friday) [%] | complete tumour regression, fraction of the tumours treated ([5]; TP114) | effect on tumour growth [6] | efficacy in the in vitro experiments, compared between the two inhibitors (lung cancer cell lines) | effect on tumour growth [7] | levels of pAKT [8] | levels of pSTAT3 [8] | p-p42/p44 activation [8]
1 | CCN1CCN(c2ccc(Nc3cc(N(C)C(=O)Nc4c(Cl)c(OC)cc(OC)c4Cl)ncn3)cc2)CC1 [BGJ398] | reduce the growth | reduce the growth | do not exert a significant effect | do not exert a significant effect |  |  |  |  |  |  |  |  |  |  |  |  |  |  | 
2 | CN1CCN(c2ccc3nc(-c4c(N)c5c(F)cccc5[nH]c4=O)[nH]c3c2)CC1 [TI-258] |  |  |  |  | more responsive |  |  |  |  |  |  |  |  |  |  |  |  |  | 
3 | AZD4547 | reduce the growth | reduce the growth | do not exert a significant effect | do not exert a significant effect |  | 14.4 | ⅕ | does not alter the activation | 1.4 | ⅖ | partial response | 25.5 | ⅖ | no effect | greatest efficacy | no effect | reduction | reduction | modest reduction

— patent publication US11408038B2, “N-cadherin and FGFR1 and/or FGFR4 for use in predicting the response of patients to a lung cancer treatment and method and kit based on said use” (FUNDACIÓN DE INVESTIGACIÓN HOSPITAL 12 DE OCTUBRE, priority 2017, dated 2022)
